Experimental data as given in ChEMBL document CHEMBL1201862, “PubChem BioAssay data set” (2004).
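Results reflect a 48-hour exposure of cells in 96-well plates to compound at five concentrations. GI50 = concentration required for 50% inhibition of growth.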 Calls of active or inactive are those of the source. No stated cut-off is given here; in the data, active = GI50 up to about 1.1 µM and inactive = higher.

Columns and labels:
Assay in all cases: NCI anticancer screen, dose series, 48 h
ACHN = system: ACHN
NCI-H226 = system: NCI-H226
KM12 = system: KM12
NCI-H23 = system: NCI-H23
Malme-3M = system: Malme-3M
MCF7 = system: MCF7
SF-295 = system: SF-295
EKVX = system: EKVX
LOX IMVI = system: LOX IMVI
SR = system: SR
MDA-MB-231 = system: MDA-MB-231
SK-MEL-28 = system: SK-MEL-28
K562 = system: K562
SN12C = system: SN12C
HOP-62 = system: HOP-62
CCRF-CEM = system: CCRF-CEM
SK-MEL-5 = system: SK-MEL-5
OVCAR-5 = system: OVCAR-5
HCC 2998 = system: HCC 2998
IGROV-1 = system: IGROV-1

C[C@]12CCC(=O)[C@@H](CCC3=CC(=O)C=CC3=O)[C@@H]1CCC2=O
GI50 (ACHN): 16.6 µM (inactive) | GI50 (NCI-H226): 20.7 µM (inactive) | GI50 (KM12): 14.3 µM (inactive) | GI50 (NCI-H23): 12.5 µM (inactive) | GI50 (Malme-3M): 16.1 µM (inactive) | GI50 (MCF7): 13.9 µM (inactive) | GI50 (SF-295): 17.8 µM (inactive) | GI50 (EKVX): 18.4 µM (inactive) | GI50 (LOX IMVI): 11 µM (inactive) | GI50 (SR): 0.0102 µM (active) | GI50 (MDA-MB-231): 20.3 µM (inactive) | GI50 (SK-MEL-28): 13.2 µM (inactive) | GI50 (K562): 2.14 µM (inactive) | GI50 (SN12C): 37.4 µM (inactive) | GI50 (HOP-62): 39.2 µM (inactive) | GI50 (CCRF-CEM): 1.87 µM (inactive) | GI50 (SK-MEL-5): 6.32 µM (inactive) | GI50 (OVCAR-5): 41.5 µM (inactive) | GI50 (HCC 2998): 15.3 µM (inactive)

C=C1CC(COc2ccc3c(C)cc(=O)oc3c2)(c2ccccc2)OC1=O (stereo not given)
GI50 (ACHN): 3.37 µM (inactive) | GI50 (NCI-H226): 6.11 µM (inactive) | GI50 (KM12): 5.47 µM (inactive) | GI50 (NCI-H23): 2.34 µM (inactive) | GI50 (Malme-3M): 1.3 µM (inactive) | GI50 (MCF7): 1.13 µM (inactive) | GI50 (SF-295): 6.85 µM (inactive) | GI50 (EKVX): 9.29 µM (inactive) | GI50 (LOX IMVI): 1.26 µM (inactive) | GI50 (SR): 1.7 µM (inactive) | GI50 (MDA-MB-231): 2.74 µM (inactive) | GI50 (SK-MEL-28): 2.41 µM (inactive) | GI50 (K562): 0.356 µM (active) | GI50 (SN12C): 5.27 µM (inactive) | GI50 (IGROV-1): 1.84 µM (inactive) | GI50 (HOP-62): 13.1 µM (inactive) | GI50 (CCRF-CEM): 0.281 µM (active) | GI50 (SK-MEL-5): 2.2 µM (inactive) | GI50 (OVCAR-5): 12.1 µM (inactive) | GI50 (HCC 2998): 5.18 µM (inactive)

CCN(CCCl)c1ccc(NC(=O)c2cc(C(=O)NCCN(C)C)cc(C(=O)Nc3ccc(N(CC)CCCl)cc3)c2)cc1
GI50 (ACHN): 5.25 µM (inactive) | GI50 (NCI-H226): 3.94 µM (inactive) | GI50 (KM12): 8.65 µM (inactive) | GI50 (NCI-H23): 3.33 µM (inactive) | GI50 (Malme-3M): 13.6 µM (inactive) | GI50 (MCF7): 0.746 µM (active) | GI50 (SF-295): 9.46 µM (inactive) | GI50 (LOX IMVI): 1.36 µM (inactive) | GI50 (SR): 0.659 µM (active) | GI50 (MDA-MB-231): 15.6 µM (inactive) | GI50 (SK-MEL-28): 16.6 µM (inactive) | GI50 (K562): 2.09 µM (inactive) | GI50 (SN12C): 2.08 µM (inactive) | GI50 (IGROV-1): 6.43 µM (inactive) | GI50 (HOP-62): 1.82 µM (inactive) | GI50 (CCRF-CEM): 0.0687 µM (active) | GI50 (SK-MEL-5): 12.3 µM (inactive) | GI50 (OVCAR-5): 16.5 µM (inactive) | GI50 (HCC 2998): 10.6 µM (inactive)

CC(C)C12CCC3(CCC4C(C)(C(=O)O)CCCC4(C)C3C1)C(CN)C2 (stereo not given)
GI50 (ACHN): 33.4 µM (inactive) | GI50 (NCI-H226): 34.2 µM (inactive) | GI50 (KM12): 35.8 µM (inactive) | GI50 (NCI-H23): 25.6 µM (inactive) | GI50 (Malme-3M): 45 µM (inactive) | GI50 (MCF7): 29.5 µM (inactive) | GI50 (SF-295): 51.2 µM (inactive) | GI50 (EKVX): 32.2 µM (inactive) | GI50 (LOX IMVI): 18.7 µM (inactive) | GI50 (SR): 25.9 µM (inactive) | GI50 (MDA-MB-231): 58.7 µM (inactive) | GI50 (SK-MEL-28): 39.7 µM (inactive) | GI50 (SN12C): 20.8 µM (inactive) | GI50 (IGROV-1): 53.2 µM (inactive) | GI50 (HOP-62): 74.6 µM (inactive) | GI50 (CCRF-CEM): 0.388 µM (active) | GI50 (SK-MEL-5): 27.7 µM (inactive) | GI50 (OVCAR-5): 42.3 µM (inactive) | GI50 (HCC 2998): 18.4 µM (inactive)

C=CCc1cccc2cc(C(=O)Nc3ccccc3)c(=N)oc12
GI50 (ACHN): 10.1 µM (inactive) | GI50 (NCI-H226): 36.6 µM (inactive) | GI50 (KM12): 38.9 µM (inactive) | GI50 (NCI-H23): 79.8 µM (inactive) | GI50 (Malme-3M): 7.14 µM (inactive) | GI50 (MCF7): 7.11 µM (inactive) | GI50 (LOX IMVI): > 100 µM (inactive) | GI50 (SR): > 100 µM (inactive) | GI50 (MDA-MB-231): > 100 µM (inactive) | GI50 (SK-MEL-28): 80.4 µM (inactive) | GI50 (K562): 64 µM (inactive) | GI50 (SN12C): 55.8 µM (inactive) | GI50 (IGROV-1): 33.2 µM (inactive) | GI50 (HOP-62): > 100 µM (inactive) | GI50 (CCRF-CEM): > 100 µM (inactive) | GI50 (SK-MEL-5): 21.7 µM (inactive) | GI50 (OVCAR-5): 38.8 µM (inactive) | GI50 (HCC 2998): 4.8 µM (inactive)

C=C(CN1CC2C[C@](C(=O)OC)(c3cc4ccccc4[nH]3)C1C(OC)C2OC)S(=O)(=O)c1ccccc1 (stereo not given in full)
GI50 (ACHN): 3.01 µM (inactive) | GI50 (NCI-H226): 5.07 µM (inactive) | GI50 (KM12): 2.88 µM (inactive) | GI50 (NCI-H23): 2.91 µM (inactive) | GI50 (Malme-3M): 0.43 µM (active) | GI50 (MCF7): 3.81 µM (inactive) | GI50 (SF-295): 4.65 µM (inactive) | GI50 (EKVX): 3.3 µM (inactive) | GI50 (LOX IMVI): 1.85 µM (inactive) | GI50 (SR): 2.7 µM (inactive) | GI50 (MDA-MB-231): 3.35 µM (inactive) | GI50 (SK-MEL-28): 7.53 µM (inactive) | GI50 (K562): 2.75 µM (inactive) | GI50 (SN12C): 3.27 µM (inactive) | GI50 (IGROV-1): 2.6 µM (inactive) | GI50 (HOP-62): 4.78 µM (inactive) | GI50 (CCRF-CEM): 2.24 µM (inactive) | GI50 (SK-MEL-5): 4.44 µM (inactive) | GI50 (OVCAR-5): 3.71 µM (inactive) | GI50 (HCC 2998): 1.87 µM (inactive)

Oc1cc(-c2cccc(OCc3ccccc3)c2)nc2cc3c(cc12)OCO3
GI50 (ACHN): 3.71 µM (inactive) | GI50 (NCI-H226): 0.455 µM (active) | GI50 (KM12): 0.491 µM (active) | GI50 (NCI-H23): 0.75 µM (active) | GI50 (Malme-3M): 0.621 µM (active) | GI50 (MCF7): 1.91 µM (inactive) | GI50 (SF-295): 0.63 µM (active) | GI50 (EKVX): 0.378 µM (active) | GI50 (LOX IMVI): 0.269 µM (active) | GI50 (SR): 0.397 µM (active) | GI50 (MDA-MB-231): 0.605 µM (active) | GI50 (SK-MEL-28): 0.632 µM (active) | GI50 (K562): 0.235 µM (active) | GI50 (SN12C): 0.378 µM (active) | GI50 (IGROV-1): 1.09 µM (active) | GI50 (HOP-62): 0.44 µM (active) | GI50 (CCRF-CEM): 0.274 µM (active) | GI50 (SK-MEL-5): 0.247 µM (active) | GI50 (OVCAR-5): 3.4 µM (inactive) | GI50 (HCC 2998): 0.298 µM (active)
